This is an account of results in patent publication US7674803B2, “Thiazolypiperidine derivatives as MTP inhibitors” (Merck Patent GmbH, priority 2003, dated 2010).

Each structure is given as a SMILES string.

Experiment [1] concerns apo B secretion in HepG2 cells. Nature of the experiment: Inhibition of apo B secretion in HepG2 cells (sandwich-ELISA). As to conditions: 24 hours incubation, culture supernatant tested by ELISA specific for human apo B, read-out: IC50, concentration that produces a 50% inhibition of apo B secretion in the HepG2 cells. The experiment is classed as cell-based. How it is done: Analysis of the Reaction of apo B in the HepG2 Human Cell Line:
The activity of a compound according to the invention can be evaluated by measuring the inhibition of apo B secretion in HepG2 cells.
The HepG2 cells (ECACC—No. 85011430) are used as model in the study of the in vitro hepatic secretion of lipoproteins (Dixon J. and Ginsberg H., J. i Lipid. Res., 1993, 34, 167-179).
The HepG2 cells are cultured in Dulbecco's modified Eagle's medium comprising 10% foetal calf serum (DMEM and FBS-Gibco) in 96-well plates under an atmosphere of 5% carbon dioxide for 24 hours (about 70% confluence).
The test compounds are dissolved at a concentration of 2 or 10 mM in dimethyl sulfoxide (DMSO). Serial dilutions (1:3.16) are made in DMSO and are added (1:200—Robot Multimek Beckman) to the growth medium (200 μL) and then finally incubated for 24 hours in the various wells containing the HepG2cells.
The 24-hour culture supernatant diluted to 1:5 (phosphate-buffered saline: PBS comprising 1% bovine serum albumin) is tested according to a sandwich-ELISA method specific for human apo B.
The results are expressed in terms of IC50, i.e. the concentration that produce a 50% inhibition of apo B secretion in the HepG2 cells.
(In general: An ELISA detects its analyte on a solid surface through an enzyme-linked reagent.)

Experiment [2] addresses T1, microsomal triglyceride transfer protein (MTP) (Mesocricetus auratus, UniProt P55158).
T1 construct: The supernatant comprising the soluble MTP is dialysed; from tissue; host or cells: golden hamster liver microsomes, deoxycholate-solubilised
T1 sequence (P55158 19-895): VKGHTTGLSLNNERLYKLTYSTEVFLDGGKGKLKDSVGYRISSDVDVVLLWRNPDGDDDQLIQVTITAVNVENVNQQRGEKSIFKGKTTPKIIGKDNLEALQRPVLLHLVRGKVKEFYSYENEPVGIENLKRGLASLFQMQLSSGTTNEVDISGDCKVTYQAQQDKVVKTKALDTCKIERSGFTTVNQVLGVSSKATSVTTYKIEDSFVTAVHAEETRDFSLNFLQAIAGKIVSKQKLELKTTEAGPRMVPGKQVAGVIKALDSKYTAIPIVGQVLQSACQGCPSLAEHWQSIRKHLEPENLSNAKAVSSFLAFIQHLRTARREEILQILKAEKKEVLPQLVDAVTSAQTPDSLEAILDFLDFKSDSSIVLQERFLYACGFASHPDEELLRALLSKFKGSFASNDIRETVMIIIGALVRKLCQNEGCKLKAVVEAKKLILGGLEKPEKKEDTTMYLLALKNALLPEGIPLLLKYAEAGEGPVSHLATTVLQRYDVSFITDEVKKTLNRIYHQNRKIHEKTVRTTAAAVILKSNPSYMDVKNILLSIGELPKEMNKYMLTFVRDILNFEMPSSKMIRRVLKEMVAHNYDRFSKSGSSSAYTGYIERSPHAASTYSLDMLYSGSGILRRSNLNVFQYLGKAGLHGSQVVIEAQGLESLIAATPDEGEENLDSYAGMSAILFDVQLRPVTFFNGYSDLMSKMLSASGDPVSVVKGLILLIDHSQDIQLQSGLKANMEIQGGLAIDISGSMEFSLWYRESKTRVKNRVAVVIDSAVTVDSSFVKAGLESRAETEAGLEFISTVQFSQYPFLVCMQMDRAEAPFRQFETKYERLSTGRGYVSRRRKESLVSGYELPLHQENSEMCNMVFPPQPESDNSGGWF
Nature of the experiment: Inhibition of MTP activity (transfer of labelled triglyceride from donor to acceptor particle, SPA). The experiment is classed as biochemical. As to conditions: MTP from golden hamster liver microsomes; [3H]-triolein transfer to LDL-biot; incubation 18-24 hours at 37° C.; read-out: IC50, concentration that allows a 50% inhibition of MTP. The method, then:
Analysis of the Inhibition of MTP Activity
The inhibition of the activity of microsomal triglyceride transfer protein (MTP) was tested by using the following operating protocol.
The inhibition of MTP activity with a compound can be quantified by observing the inhibition of the transfer of a labelled triglyceride, from a donor particle to an acceptor particle, in the presence of MTP. The procedure for the preparation of MTP is based on the method by Wetterau and Zilversmit (Biochem. Biophys. Acta (1986) 875, 610). A few grams of golden hamster liver are taken and then rinsed several times in a 250 mM sucrose solution at 0° C. All the following steps proceed at +4° C. A homogenate at a concentration of 50% in 250 mM sucrose is prepared using a Teflon mill and then centrifuged for 10 minutes at 10 000× g at +4° C. The supernatant is then centrifuged at 105 000× g for 75 minutes at +4° C. The supernatant is discarded and the microsomal pellet is taken up in 3 ml (per g of starting liver) of Tris/HCl 150 mM pH 8.0. 1-ml aliquot fractions are stored at −80° C. until the time of use.
After thawing a fraction of microsomes (1 ml), 12 ml of refrigerated Tris/HCl 50 mM, KCl 50 mM, MgCl2 5 mM pH 7.4 buffers and 1.2 ml of deoxycholate (0.54% in water) are added. After incubation for 30 minutes at +4° C. with gentle agitation, the suspension is centrifuged at 105 000× g for 75 minutes. The supernatant comprising the soluble MTP is dialysed against Tris/HCl 150 mM, NaCl 40 mM, EDTA 1 mM, 0.02% sodium azide pH 7.4 buffer (5 times one litre over 2-3 days). The MTP is stored at +4° C., is stable for at least 30 days and is used in unmodified form in the test.
The donor particles (liposomes) are prepared from 208 μL of L-phosphatidylcholine at a concentration of 10 mg/ml in chloroform, and 480 μL of. [3H]-triolein at a concentration of 0.5 mCi/ml in toluene. After stirring, the solution is evaporated under nitrogen, taken up in 6 ml of Tris/HCl 50 mM, KCl 50 mM, MgCl2 5 mM pH 7.4 buffer and incubated in an ultrasound bath for 30 minutes at room temperature. The liposomes are stored at +4° C. and sonicated again for 10 minutes before each use.
The acceptor particles are biotinylated low density lipoproteins (LDL-biot). These particles are supplied by the company Amersham.
The reaction mixture is prepared in untreated 1/2 well white plates (Corning Costar) by addition, in the following order, of: 5 μL of HEPES 50 mM, NaCl 150 mM, BSA 0.1% (w/v), 0.05% sodium azide (w/v), pH 7.4 buffer; 5 μL of liposomes; 5 μL of LDL-biot; 5 μL of test products in DMSO; 5 μL of MTP. After incubation for 18-24 hours at 37° C., the reaction is stopped by adding 100 μL of Amersham SPA (Scintillation Proximity Assay) beads coupled to streptavidin, and the radioactivity is counted using a Top Count (Packard) machine at least one hour later. The inhibition of the transfer of the triglycerides with a compound is reflected by a reduction in the transferred radioactivity.
The results are expressed in terms of the IC50, i.e. the concentration that allows a 50% inhibition of MTP.
A general note: Microsomes from liver hold many membrane-bound enzymes, among them those of drug oxidation.

As to `CCN(C(=O)c1csc(C2CCN(C(=O)c3cccc(C)c3-c3ccc(OC(F)(F)F)cc3)CC2)n1)C(C)C(=O)c1ccccc1` (stereo not shown) [Example 1, 2-[1-(6-Methyl-4’-trifluoromethoxybiphenyl-2-carbonyl)piperid-4-yl]thiazol-4-carbonyl[N-ethyl-N-(1-methyl-2-oxo-2-phenylethyl)]amide], the IC50 turned out to be 0.02 µM in experiment [1] and 0.051 µM in experiment [2].
For `CCN(C(=O)c1csc(C2CCN(C(=O)c3ccccc3-c3ccc(C(F)(F)F)cc3)CC2)n1)C(C#N)c1ccccc1` (stereo not shown) [Example 9] the same measures were 0.007 µM and 0.058 µM.
For `C[C@H](C(=O)c1ccccc1)N(C)C(=O)c1csc(C2CCN(C(=O)c3ccccc3-c3ccc(C(F)(F)F)cc3)CC2)n1` [Example 5] the same measures were 0.286 µM and 0.66 µM.
`CC(C)N(C(=O)c1csc(C2CCN(C(=O)c3ccccc3-c3ccc(C(F)(F)F)cc3)CC2)n1)C(C#N)c1ccccc1` (stereo not shown) [Example 10]: the IC50 in experiment [2] was 0.167 µM.
Regarding `CC(C(=O)c1ccccc1)N(C)C(=O)c1csc(C2CCN(C(=O)c3ccccc3-c3ccc(C(F)(F)F)cc3)CC2)n1` (stereo not shown) [Example 4], the IC50 amounted to 0.307 µM in experiment [1] and 0.72 µM in experiment [2].
For `CCN(C(=O)c1csc(C2CCN(C(=O)c3ccccc3-c3ccc(C(F)(F)F)cc3)CC2)n1)C(C)C(=O)c1ccccc1` (stereo not shown) [Example 3] the same measures were 0.012 µM and 0.057 µM.
On the same counts, the results for `CCN(C(=O)c1csc(C2CCN(C(=O)c3ccccc3-c3ccc(C(F)(F)F)cc3)CC2)n1)C(C)C(=O)c1cccnc1` (stereo not shown) [Example 6] are 0.288 µM and 0.385 µM.
